Data from PubChem BioAssay AID1417 (Emory University Molecular Libraries Screening Center, 2008).

These molecules were tested against Induced myeloid leukemia cell differentiation protein Mcl-1 (Homo sapiens) (UniProt Q07820) (assay: Mcl-1 Noxa peptide disruption concentration-response – biochemical, TR-FRET, dose response (AID 1417)). Conditions: Mcl-1/Noxa peptide interaction, cell-free TR-FRET (terbium/rhodamine), 2 h; measured here: absolute IC50.
Induced myeloid leukemia cell differentiation protein Mcl-1 (Homo sapiens), sequence (Q07820 whole entry, looked up): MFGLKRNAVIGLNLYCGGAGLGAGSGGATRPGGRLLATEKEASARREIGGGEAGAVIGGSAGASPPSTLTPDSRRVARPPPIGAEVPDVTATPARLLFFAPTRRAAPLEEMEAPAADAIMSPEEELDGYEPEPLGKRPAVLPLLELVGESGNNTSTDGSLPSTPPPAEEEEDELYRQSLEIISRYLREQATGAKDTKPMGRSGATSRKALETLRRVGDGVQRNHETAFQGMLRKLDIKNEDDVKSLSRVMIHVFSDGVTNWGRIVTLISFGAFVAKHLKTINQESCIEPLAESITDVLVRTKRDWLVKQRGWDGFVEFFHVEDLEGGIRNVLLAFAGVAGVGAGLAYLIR

| SMILES | IC50 [µM] |
| --- | --- |
| Cc1ccc(/C=C2\SC(=S)N(/N=C/c3cc([N+](=O)[O-])ccc3O)C2=O)o1 | < 0.4 |
| NS(=O)(=O)c1ccc(NC(=S)NC(=O)/C=C/c2ccco2)cc1 | 6.75 |
| COc1ccc(C(=O)Nc2ccc(N3CCCC3)cc2)cc1 | 2.65 |
| COc1ccc(C(c2c(O)cc(C)oc2=O)c2c(O)cc(C)oc2=O)cc1 | > 54 |
| COc1ccc(N2CCC(CNC(=S)Nc3cccc(OC)c3)C2)cc1 (stereo not given) | > 54 |
| CCN(CC)c1ccc(NC(=O)c2ccccc2OCC(=O)OC)cc1 | > 54 |
| Cc1nc(N)sc1-c1csc(Nc2ncccn2)n1 | 3.98 |
| O=C(COC(=O)c1cc(-c2ccco2)nc2ccccc12)NCc1ccc2c(c1)OCO2 | 29.4 |
| O=c1c(-c2c(O)cc(O)c3c(=O)cc(-c4ccc(O)cc4)oc23)c(-c2ccc(O)cc2)oc2cc(O)cc(O)c12 | > 54 |
| Cn1cc(C(=O)N/N=C/c2ccc([N+](=O)[O-])cc2)c2ccccc21 | 3.04 |
| COc1ccc(NC(=O)CN2C(=O)/C(=C3\SC(=S)N(C4CCS(=O)(=O)C4)C3=O)c3ccccc32)cc1 (stereo not given) | 2.54 |
| CC(=O)c1sc2nc(CSc3nnnn3-c3ccccc3)[nH]c(=O)c2c1C | 0.93 |
| Cc1cccc(NC(=O)c2cccs2)n1 | > 54 |
| NC(=O)C1CCN(C2=C(Cl)C(=O)c3ccccc3C2=O)CC1 | 48.2 |
| O=[N+]([O-])c1cccc(S(=O)(=O)Nc2nc3ccccc3nc2Nc2cccc(S(=O)(=O)N3CCCCC3)c2)c1 | 3.75 |
| COc1cccc(C(=O)Nc2cc(Cl)c(O)c(Cl)c2)c1 | > 54 |
| Nc1c(C(=O)NC2CC2)sc2nc3c(c(-c4ccco4)c12)CC/C3=C/c1ccco1 | < 0.4 |
| O=C(/C=C/c1ccc(Cl)c([N+](=O)[O-])c1)Nc1ccc(N2CCCC2)cc1 | 8.3 |
| O=C1/C(=C/C=C/c2ccco2)SC(=S)N1NS(=O)(=O)c1ccccc1 | 1.41 |
| Nc1c(C(=O)NCCN2CCOCC2)c2nc3ccccc3nc2n1Cc1ccco1 | > 54 |
| O=C1C(=Cc2ccc(Br)o2)C(=O)c2ccccc21 | < 0.4 |
| COc1ccc(/C=C2/SC(=S)N(c3ccc(S(=O)(=O)Nc4nccs4)cc3)C2=O)cc1 | 0.999 |
| Cc1ccc(NC(=O)CN2C(=O)S/C(=C\c3cccn3-c3cccc(C(=O)O)c3)C2=O)c(C)c1 | 13.1 |
| CC(=O)Nc1sc(N/N=C/c2ccc(O)cc2)nc1-c1ccc(C)cc1 | 3.72 |
| Oc1nc(Nc2ccc(F)cc2)sc1/C=C1\C=Nc2ccccc21 | 4.32 |
| O=c1cc2c(=O)oc3cc(O)c(O)oc3c2c(O)c1O | < 0.4 |
| Cc1[nH]n(-c2ncc(-c3ccccc3)s2)c(=O)c1C(c1ccc(Cl)cc1)C(C#N)C#N (stereo not given) | 12.2 |

| SMILES | IC50 [µM] |
| --- | --- |
| O=C(CSc1nnc(SCc2ccccc2)s1)N/N=C/C=C/c1ccco1 | 4.87 |
| CC(=O)C1=C(S(=O)(=O)c2ccc(C)cc2)CS(=O)(=O)C1 | < 0.4 |
| CC1CCc2c(sc(Nc3nc4c(F)cccc4s3)c2C(N)=O)C1 (stereo not given) | < 0.4 |
| O=C1/C(=C/c2ccccn2)SC(=S)N1c1ccc(O)cc1 | 8.38 |
| O=C(Nc1nccs1)c1cccc(N2C(=O)c3cccc4c([N+](=O)[O-])ccc(c34)C2=O)c1 | > 54 |
| OCCNc1nc(Nc2ccccc2)nc(Nc2ccccc2)n1 | > 54 |
| CCOC(=O)c1sc2nc3c(SCCC(=O)O)cc(C(=O)c4cc(OC)ccc4O)cn3c(=O)c2c1C | 0.955 |
| C/C(=N\NC(=O)c1cccc(N/N=C(\C)c2cc(O)ccc2O)c1)c1cc(O)ccc1O | < 0.4 |
| Clc1cccc(/C=N/Nc2nc(Cl)nc3ccccc23)c1 | > 54 |
| COc1cccc(-n2c(SCc3cc(=O)oc4cc(O)c(O)cc34)nc3ccccc3c2=O)c1 | 2.18 |
| COc1ccc(OCC(=O)Nc2nnc(-c3ccco3)s2)cc1 | 3.81 |
| CCN1C(=O)/C(=C/c2ccc3c(c2)CCN3CCCCl)C(=O)NC1=S | 2.57 |
| CSc1nc(SCCO)c2sc3nc(-c4ccco4)c4c(c3c2n1)CC(C)(C)OC4 | < 0.4 |
| CCC1=NN2C(=N)/C(=C\c3ccc(OCc4cc(=O)n5nc(CC)sc5n4)c(OC)c3)C(=O)N=C2S1 | 2.31 |
| O=C(COC(=O)c1ccc2c(c1)C(=O)N(Cc1ccncc1)C2=O)Nc1ccccc1[N+](=O)[O-] | 2.53 |
| O=C(N/N=C/c1ccc(O)cc1O)c1ccc(CN2C(=O)c3cccc4cccc2c34)cc1 | 1.29 |
| O=C(N/N=C\C=C\c1ccco1)c1cc(-c2ccc3ccccc3c2)n[nH]1 | 2.11 |
| Cc1cc(SCC(=O)N/N=C/c2ccc(O)c(O)c2O)c(C)cc1Br | < 0.4 |
| N#C/C(=C(/O)c1ccc(-c2cccc([N+](=O)[O-])c2)o1)c1nc2ccccc2s1 | 5.71 |
| O=[N+]([O-])c1ccc(-c2cn(-c3ccc(Cl)cc3)c(=S)[nH]2)cc1 | 7.17 |
| O=C(COc1ccc2ccccc2c1)NNC(=O)c1ccc([N+](=O)[O-])cc1 | 8.48 |
| COCCN=c1scc(-c2cccs2)n1/N=C/c1ccc(O)c(O)c1O | 4.33 |
| O=C1C(Cl)=C(Nc2ccc3cn[nH]c3c2)C(=O)c2ccccc21 | < 0.4 |
| COc1ccc(N=C2NC(=O)/C(=C\C=C\c3ccco3)S2)cc1 | 1.48 |
| Cc1nn(CC(=O)Nc2ccc(N(C)C)cc2)c(C)c1[N+](=O)[O-] | > 54 |
| O=c1c(O)cccc2cc(O)c(O)c(O)c12 | < 0.4 |
| Cc1nc(NC(=O)c2ccco2)sc1-c1csc(Nc2ccc(Cl)cc2Cl)n1 | 1.24 |

| SMILES | IC50 [µM] |
| --- | --- |
| COc1cc(C(=O)Nc2ccc(N(C)C)cc2)cc(OC)c1OC | > 54 |
| CCN(c1ccc(NC(=O)CCNC(=O)c2ccco2)cc1)C(C)C | > 54 |
| CSCc1nc2sc(C(=O)Nc3nc(C)cs3)c(C)c2c(=O)[nH]1 | 4.1 |
| O=C(Nc1ccc2nc3ccccc3nc2c1)c1ccccc1 | 29.6 |
| O=C(O)CSc1cc(C(=O)c2ccccc2O)cn2c(=O)c3c4c(sc3nc12)CCCC4 | 3.38 |
| COc1ccc(OC)c(/C=N/c2oc(-c3ccco3)c(-c3ccco3)c2C#N)c1 | 9.72 |
| COc1ccc(N2C(=O)C3CCCN3C2=O)cc1 (stereo not given) | > 54 |
| CCOC(=O)C1=C(O)/C(=C/c2cc(OC)c(O)c(OC)c2)SC1=Nc1ccc(OC)cc1 | > 54 |
| Cc1cccc(C(=O)N=c2c(C#N)cc3c(=O)n4cccc(C)c4nc3n2Cc2ccco2)c1 | 4.26 |
| O=C(O)c1cc(N/N=C/c2ccc(N3CCOCC3)s2)ccc1Cl | 1.08 |
| CC1(C)CC(=O)C(C=Nc2cccc(/N=C/C3=C(O)CC(C)(C)CC3=O)n2)=C(O)C1 | > 54 |
| O=C(O)c1ccccc1/C=N/NC(=O)c1cc(-c2ccco2)nc2ccccc12 | < 0.4 |
| C=CCOC(=O)c1cc(-c2ccc(/C=C3\C(=O)NC(=O)C(C#N)=C3C)o2)ccc1Cl | < 0.4 |
| O=C(N=Nc1c(O)[nH]c2ccc([N+](=O)[O-])cc12)c1cc(-c2ccccc2Cl)nc2ccccc12 | < 0.4 |
| O=C(N/N=C/c1ccc(O)cc1)c1cccc(N/N=C/c2ccc(O)cc2)c1 | 2.05 |
| O=C1C=CC(=O)C(C2=C3C(=O)N(CCc4ccccc4)CC(=O)N3CCC2)=C1 | > 54 |
| C=C(C)C(=O)Nc1cccc(C2=NOC3(C2)C[C@@H](C(N)=O)N(C(=O)c2cc([N+](=O)[O-])cc([N+](=O)[O-])c2C)C3)c1 (stereo not given in full) | 4.09 |
| Cc1ccc(-n2nc3cc(C)c(N)cc3n2)cc1 | < 0.4 |
| CC1=Nc2ccc(C)cc2/C1=C/c1c(N)n2c(S(=O)(=O)C(C)C)nsc2nc1=O | > 54 |
| CN(C(=O)COC(=O)c1cc(-c2ccco2)nc2ccccc12)C1CCS(=O)(=O)C1 (stereo not given) | < 0.4 |
| CC1=NN(c2cccc(C(=O)O)c2)C(=O)/C1=C\C=C\c1ccco1 | 4.5 |
| Cc1cccc(/N=C/c2sc3ccccc3c2O)n1 | 0.759 |
| COc1ccccc1CNC(=O)COC(=O)c1cc(-c2ccco2)nc2ccccc12 | 1.8 |
| O=[N+]([O-])C(=c1ccc2c(c1)N1C3=C(CCCC3)CC3CCCCC31N=2)[N+](=O)[O-] (stereo not given) | < 0.4 |
| CN(C)c1ccc(Nc2c3c4c(cccc4n(C)c2=O)C(=O)c2ccccc2-3)cc1 | < 0.4 |
| CCN(c1ccc(NC(=O)c2ccc(Cl)nc2)cc1)C(C)C | > 54 |
| Cc1n[nH]c(=S)n(NC(=O)/C=C/C(=O)Nn2c(=S)[nH]nc(C)c2=O)c1=O | < 0.4 |

| SMILES | IC50 [µM] |
| --- | --- |
| CC(=O)Nc1ccc(C(=O)Nc2cccc(-c3cnc4ccccc4n3)c2)cc1 | > 54 |
| Cc1ccc(N2C(=O)NC(=O)/C(=C/c3ccoc3)C2=O)cc1 | 4.36 |
| COc1cc(/C=N/Nc2nnc3c(n2)[nH]c2ccccc23)ccc1O | 5.83 |
| COc1ccc(-c2csc(Nc3ccccc3)n2)cc1 | > 54 |
| O=C(NCc1ccco1)c1c2c(nc3ccccc13)CCC2 | 3.96 |
| CNCc1ccccc1Sc1cc(O)ccc1O | 4.17 |
| CCc1ccc(NC(=O)N(CCN2CCOCC2)Cc2ccc3c(c2)CCCN3CC)cc1 | > 54 |
| CCOc1ccccc1Nc1nc(-c2sc(NC(=O)c3ccc([N+](=O)[O-])cc3)nc2C)cs1 | < 0.4 |
| O=C1c2cccc3cc([N+](=O)[O-])cc(c23)C(=O)N1/N=C/c1ccc(O)cc1O | 1.52 |
| O=C1/C(=C/c2ccc(O)c(O)c2)Oc2cc(O)ccc21 | 1.16 |
| Cc1ccc(Cn2c(=N)c(C(=O)NCc3ccco3)cc3c(=O)n4ccccc4nc32)cc1 | 3.6 |
| COc1ccc(NC(=O)c2cc3cccc(OC)c3oc2=Nc2ccc(C(=O)O)cc2)cc1OC | 2.38 |
| COc1cc(C2C3=C(Nc4nc(N)[nH]c(=O)c42)c2ccccc2C3=O)ccc1O (stereo not given) | 2.28 |
| Cc1ccc(O)c(NC2=C(Cl)C(=O)N(Cc3ccccc3)C2=O)c1 | > 54 |
| O=C(NCCCCc1ccccc1)C1CC(c2ccccc2[N+](=O)[O-])=NO1 (stereo not given) | > 54 |
| COC(=O)c1ccc2nc(Nc3nc4ccc(F)cc4s3)sc2c1 | 1.75 |
| COc1ccc(C(=O)C[n+]2ccc(-c3nnc4n3CCCCC4)cc2)cc1 | 23.1 |
| CN1CCN(S(=O)(=O)c2ccc(NC(=S)NC(=O)c3ccc(Cl)cc3)cc2)CC1 | 3.59 |
| NC(=S)n1[nH]c(-c2ccc([N+](=O)[O-])cc2)c(N=Nc2cccc([N+](=O)[O-])c2)c1=O | 1.65 |
| CCn1nc([N+](=O)[O-])c(C(C#N)c2nc3cc(C(F)(F)F)ccc3s2)c(Cl)c1=O (stereo not given) | 3.15 |
| CCNc1nc(NCC)nc(C(=O)NN)n1 | < 0.4 |
| CC(/C=C/c1ccco1)=N/NC(=O)Cc1cccs1 | 4.32 |
| O=C(Nc1ccc(N2CCCC2)cc1)c1ccccc1F | 6.9 |
| Cc1ccc(C2=NC(=O)/C(=C/c3cc(O)c(O)c(Br)c3)S2)cc1 | < 0.4 |
